ChEMBL document CHEMBL3045414, “Synthesis and evaluation of 2,4,6-trisubstituted pyrimidine derivatives as novel antileishmanial agents” (2013)

System: Leishmania donovani
Assay: Antileishmanial activity against promastigote stage of Leishmania donovani assessed as parasite growth inhibition at 10 ug/ml after 2 hr by MTT assay relative to control
Format: functional
Settings: read-out: GI

| SMILES | inhibition of growth at 10 µg/mL |
| --- | --- |
| Nc1nc(-c2ccc(F)cc2)cc(-c2ccc(-n3cnc4ccccc43)cc2)n1 | 29.6% |
| COc1ccc(-c2cc(-c3ccc(-n4cnc5ccccc54)cc3)nc(N)n2)cc1 | 51.2% |
| Nc1nc(-c2ccc(Br)cc2)cc(-c2ccc(-n3ccnc3)cc2)n1 | 24.3% |
| Nc1nc(-c2ccccc2)cc(-c2ccc(-n3ccnc3)cc2)n1 | 32.8% |
| Nc1nc(-c2ccc(-n3cnc4ccccc43)cc2)cc(-c2ccc(Cl)cc2Cl)n1 | 56.4% |
| Nc1nc(-c2ccc(Cl)cc2)cc(-c2ccc(-n3cnc4ccccc43)cc2)n1 | 32.7% |
| Nc1nc(-c2ccc(Cl)cc2)cc(-c2ccc(-n3ccnc3)cc2)n1 | 46.1% |
| COc1ccc(-c2cc(-c3ccc(-n4ccnc4)cc3)nc(N)n2)cc1 | 18.1% |
| Nc1nc(-c2ccccc2)cc(-c2ccc(-n3cnc4ccccc43)cc2)n1 | 41.9% |
| Nc1nc(-c2ccc(Br)cc2)cc(-c2ccc(-n3cnc4ccccc43)cc2)n1 | 32.5% |
